In experiment [1] the target is PI3K alpha (Homo sapiens (Human), UniProt P42336). Description: Enzymatic PI3K alpha isoform inhibition (lipid kinase activity, Kinase-Glo luminescence). Format: biochemical. Conditions: Enzymatic assay. Summed up:
(§1)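 IC50s derive from 4-parameter logistic fits of % inhibition across 8 concentrations (usually 10 to 0.003 μM). Lipid kinase reaction: PI3K (10 nM) plus phosphatidylinositol (5 μg/mL) started with 2 μM ATP, stopped near 50% ATP depletion; leftover ATP quantified by Kinase-Glo luminescence.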
On the technique in general: In Kinase-Glo more light means more ATP remaining.

The subject of experiment [2] is rat B cells derived from whole blood. In words: Determination of rat B cell activation in whole blood (CD86 upregulation after anti-IgM and rIL-4). Format: cell-based. To be noted: anti-IgM + rIL-4 stimulation, CD86 on CD45RA+ B cells, read-out: RWB/IC50 CD86. As for the experimental part:
2.3 Determination of Rat B Cell Activation
PI3Kδ has been recognized to modulate B cell function when cells are stimulated through the B cell receptor (BCR) (Okkenhaug et al. Science 297:1031 (2002). For assessing the inhibitory property of compounds on B cell activation, the upregulation of activation markers CD86 on rat B cells derived from whole blood is measured after stimulation with anti-IgM and recombinant IL-4. The CD86 molecule (also known as B7-2) is primarily expressed on antigen-presenting cells, including B cells. Resting B cells express CD86 at low levels, but upregulate it following stimulation of e.g. the BCR or IL-4 receptor. CD86 on a B cell interacts with CD28 on T cells. This interaction is required for optimal T cell activation and for the generation of an optimal IgG1 response (Carreno et al. Annu Rev Immunol. 20:29 (2002)).
Whole blood was collected from the abdominal aorta adult male Lewis rats (LEW/HanHsd) oby using a 10 ml syringe with hypodermic needle pre-coated with sodium heparin. Blood was transferred into 50 ml Falcon tubes and the anticoagulant concentration was adjusted to 100 U/ml.
For assessment of the in vitro effects of immunosuppressive drugs, heparinized blood was prediluted to 50% with medium. As medium served DMEM high glucose (Animed cat#1-26F01-I) supplemented with 100 U/ml penicillin, […], 2 mM L-glutamin, 50 mg/ml dextran 40 and 5% fetal calf serum (FCS, Fetaclone I, Gibco #10270-106). Then, 190 μl prediluted blood was spiked with 10 μl of pre-diluted test compound in 96 well U-bottomed microtiter plates (Nunc) resulting in a 3-fold serial dilution with a concentration range from 20 to 0.0003 μM. Control wells were pretreated with DMSO to obtain a final concentration of 0.5% DMSO. Cultures were set up in duplicates, mixed well by agitation on a plate shaker (Heidolph Titramax 101; 30 sec, speed 900), pipetting up and down and agitated on the plate shaker again. Cultures were incubated at 37° C., 5% CO2 for 1 hr. Then, 20 μl of polyclonal goat anti-rat IgM Ab (Serotec, cat#302001) and 10 μl of diluted recombinant rIL-4 (Immunotools #340085) were added to obtain final concentrations of 30 μg/ml and 5 ng/ml, respectively. Plates were mixed by agitation on a plate shaker as above and incubated for 24 hrs at 37° C., 5% CO2.
After incubation, 15 μl of a 25 mM EDTA solution was added per well and shaken for 15 min to detach adherent cells. For analysis of surface activation markers, samples were then stained with PE-Cy5-labeled anti-ratCD45RA (BD cat#557015) to allow gating on B cells in FACS analysis. In addition, samples were stained with PE-labeled anti-rat CD86 (BD cat#551396). All staining procedures were performed at rt for 30 min in the dark. After incubation, samples were transferred to 96-deep well V-bottomed microtiter plates (Corning #396096) containing 2 ml/well of BD Lysing Solution (BD #349202). After lysis of erythrocytes samples were washed with 2 ml of CellWASH (BD #349524). Data was acquired on an LSRII or FACScalibur flow cytometer (BD Biosciences) using Cellquest Plus or DIVA (version 6.1.1) software, respectively. Lymphocytes were gated in the FSC/SSC dot blot according to size and granularity and further analyzed for expression of CD45RA and activation markers. Data were calculated from dot blots or histograms as percentage of cells positively stained for activation markers within the CD45RA+ population.
The percentage inhibition of B cell activation after exposure to drug was calculated by the following formula: […]
ORIGIN 7 software (OriginLab Corporation, Northampton, Mass.) was used for non-linear regression curve fitting.

Experiment [3] deals with myristoylated catalytic subunit of human PI3K delta in Rat-1 cells (Homo sapiens (Human), UniProt O00329). In words: PI3K-mediated Akt 1/2 (S473) phosphorylation in Rat-1 cells, PI3K delta. Format: cell-based. Conditions: Rat-1 cells overexpressing myristoylated human PI3K delta; p-Akt (S473) AlphaScreen SureFire; read-out: Cell PI3Kδ/ IC50. As for the experimental part:
2.1 Phosphoinositide-3 Kinase (PI3K)-Mediated Akt 1/2 (S473) Phosphorylation in Rat-1 Cells
Rat-1 cells stably overexpressing a myristoylated form of the catalytic subunit of human phosphoinositide-3 kinase (PI3K) alpha, beta or delta were plated in 384-well plates at a density of 7500 (PI3K alpha), 6200 (PI3K beta), or 4000 (PI3K delta) cells in 30 ul complete growth medium (Dulbecco's modified Eagle's medium (DMEM high glucose) supplemented with 10% (v/v) fetal bovine serum, 1% (v/v) MEM non essential amino acids, 10 mM HEPES, 2 mM L-glutamine, 10 μg/mL puromycin and 1% (v/v) Penicillin/Streptomycin) and were incubated at […]/5% CO2/95% humidity for 24 h. Compounds were diluted in 384-well compound plates to obtain 8-point serial dilutions for 40 test compounds in 90% DMSO, as well as 4 reference compounds plus 16 high controls and 16 low (inhibited) controls. Predilution plates were prepared by dispensing pipetting 250 nl of compound solutions into 384-well polypropylen plates using a Hummingwell nanoliter dispensor. Compounds were prediluted by the addition of 49.75 ul complete growth medium. 10 ul of prediluted compound solution were transferred to the cell plate using a 384-well pipettor, resulting in a final DMSO concentration of 0.11%.
Cells were incubated for 1 h at […]/5% CO2/95% humidity. The supernatant was removed, the cells were lysed in 20 ul of lysis buffer for AlphaScreen® SureFire® detection.
For detection of p-AKT(Ser473), the SureFire® p-Akt 1/2 (Ser473) Assay Kit (PerkinElmer, U.S.A) was used. 5 ul of cell lysate was transferred to 384-well low volume Proxiplates for detection using a 384-well pipettor. Addition of AlphaScreen® SureFire® reagents was done according to the manufacturer's protocol. First, 5 ul of reaction buffer plus activation buffer mix containing AlphaScreen® acceptor beads was added, the plate was sealed, and incubated on a plate shaker for 2 hours at room temperature. Second, 2 ul of dilution buffer containing AlphaScreen® donor beads was added, and the plate was incubated on plate shaker as above for a further 2 hours. The plate was read on an AlphaScreen® compatible plate reader, using standard AlphaScreen® settings.
For orientation: In Alpha technology, singlet oxygen from a donor bead excites a nearby acceptor bead.

Experiment [4] addresses PI3K delta (Homo sapiens (Human), UniProt O00329). Description: Enzymatic PI3K delta isoform inhibition (lipid kinase activity, Kinase-Glo luminescence). Format: biochemical. Conditions: Enzymatic assay. Summed up:
as §1

The structures appear in SMILES notation. pIC50: −log10 of the molar value. A value given as a limit tells only on which side of the number the result lay.

Chain of PI3K delta (O00329 other isoform, or with tags, fused parts or gaps linker GGGGGG): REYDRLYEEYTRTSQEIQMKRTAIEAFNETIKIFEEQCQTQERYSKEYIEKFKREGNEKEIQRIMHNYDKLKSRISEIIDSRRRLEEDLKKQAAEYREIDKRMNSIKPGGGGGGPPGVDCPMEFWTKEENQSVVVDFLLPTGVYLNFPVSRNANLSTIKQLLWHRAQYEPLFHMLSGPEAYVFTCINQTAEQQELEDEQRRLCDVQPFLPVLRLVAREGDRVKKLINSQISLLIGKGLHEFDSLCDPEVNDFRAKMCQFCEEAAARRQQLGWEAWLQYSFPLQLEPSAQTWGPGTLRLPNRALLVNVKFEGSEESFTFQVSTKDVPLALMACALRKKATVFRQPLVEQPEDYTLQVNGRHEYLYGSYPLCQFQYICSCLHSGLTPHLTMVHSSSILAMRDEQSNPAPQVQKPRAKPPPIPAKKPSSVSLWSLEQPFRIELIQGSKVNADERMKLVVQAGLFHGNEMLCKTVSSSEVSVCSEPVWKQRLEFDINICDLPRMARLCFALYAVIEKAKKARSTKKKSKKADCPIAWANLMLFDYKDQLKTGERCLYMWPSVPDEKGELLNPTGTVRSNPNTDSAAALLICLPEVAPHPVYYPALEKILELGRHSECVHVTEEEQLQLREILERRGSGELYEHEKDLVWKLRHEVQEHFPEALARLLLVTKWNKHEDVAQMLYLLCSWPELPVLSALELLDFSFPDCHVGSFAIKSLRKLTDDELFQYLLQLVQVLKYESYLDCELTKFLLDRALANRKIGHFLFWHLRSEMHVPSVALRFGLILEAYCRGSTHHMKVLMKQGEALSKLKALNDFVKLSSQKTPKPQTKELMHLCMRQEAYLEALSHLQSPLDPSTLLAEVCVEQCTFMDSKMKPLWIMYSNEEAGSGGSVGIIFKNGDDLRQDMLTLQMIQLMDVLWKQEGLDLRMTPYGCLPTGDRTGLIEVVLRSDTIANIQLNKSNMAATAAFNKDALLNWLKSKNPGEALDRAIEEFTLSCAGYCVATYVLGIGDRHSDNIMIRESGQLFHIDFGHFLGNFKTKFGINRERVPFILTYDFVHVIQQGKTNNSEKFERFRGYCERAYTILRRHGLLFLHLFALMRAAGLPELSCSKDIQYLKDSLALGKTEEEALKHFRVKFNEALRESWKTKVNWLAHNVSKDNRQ
Chain of PI3K alpha (P42336 other isoform, or with tags, fused parts or gaps): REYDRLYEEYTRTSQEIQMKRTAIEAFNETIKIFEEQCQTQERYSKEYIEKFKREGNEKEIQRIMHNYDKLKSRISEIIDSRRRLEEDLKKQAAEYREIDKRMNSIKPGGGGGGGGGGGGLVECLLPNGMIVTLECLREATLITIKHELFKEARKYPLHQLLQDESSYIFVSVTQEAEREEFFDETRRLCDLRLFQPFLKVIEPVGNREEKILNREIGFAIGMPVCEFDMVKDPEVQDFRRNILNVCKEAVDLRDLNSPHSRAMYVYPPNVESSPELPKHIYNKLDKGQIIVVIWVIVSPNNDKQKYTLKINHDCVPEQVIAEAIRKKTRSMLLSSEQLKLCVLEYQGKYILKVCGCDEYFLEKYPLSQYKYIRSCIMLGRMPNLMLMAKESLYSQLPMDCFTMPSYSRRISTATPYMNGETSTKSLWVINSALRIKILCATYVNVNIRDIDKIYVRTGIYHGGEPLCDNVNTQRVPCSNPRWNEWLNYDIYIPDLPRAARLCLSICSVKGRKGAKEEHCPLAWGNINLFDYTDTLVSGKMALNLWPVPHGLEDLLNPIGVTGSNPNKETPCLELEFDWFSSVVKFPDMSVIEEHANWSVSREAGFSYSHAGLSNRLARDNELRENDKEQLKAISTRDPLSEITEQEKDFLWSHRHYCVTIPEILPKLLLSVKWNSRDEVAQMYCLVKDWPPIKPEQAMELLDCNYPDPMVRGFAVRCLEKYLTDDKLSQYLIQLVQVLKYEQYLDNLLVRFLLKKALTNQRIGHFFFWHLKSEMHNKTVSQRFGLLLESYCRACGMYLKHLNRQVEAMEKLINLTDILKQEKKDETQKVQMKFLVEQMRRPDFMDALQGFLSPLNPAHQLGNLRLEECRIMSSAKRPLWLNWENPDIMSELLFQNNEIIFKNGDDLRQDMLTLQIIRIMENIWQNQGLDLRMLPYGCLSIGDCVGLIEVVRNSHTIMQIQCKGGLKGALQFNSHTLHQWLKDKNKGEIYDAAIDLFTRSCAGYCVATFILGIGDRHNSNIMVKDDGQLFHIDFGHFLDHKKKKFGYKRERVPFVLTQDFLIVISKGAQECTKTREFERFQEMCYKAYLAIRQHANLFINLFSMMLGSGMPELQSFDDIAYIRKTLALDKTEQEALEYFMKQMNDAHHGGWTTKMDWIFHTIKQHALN
Chain of myristoylated catalytic subunit of human PI3K delta in Rat-1 cells (O00329 whole entry): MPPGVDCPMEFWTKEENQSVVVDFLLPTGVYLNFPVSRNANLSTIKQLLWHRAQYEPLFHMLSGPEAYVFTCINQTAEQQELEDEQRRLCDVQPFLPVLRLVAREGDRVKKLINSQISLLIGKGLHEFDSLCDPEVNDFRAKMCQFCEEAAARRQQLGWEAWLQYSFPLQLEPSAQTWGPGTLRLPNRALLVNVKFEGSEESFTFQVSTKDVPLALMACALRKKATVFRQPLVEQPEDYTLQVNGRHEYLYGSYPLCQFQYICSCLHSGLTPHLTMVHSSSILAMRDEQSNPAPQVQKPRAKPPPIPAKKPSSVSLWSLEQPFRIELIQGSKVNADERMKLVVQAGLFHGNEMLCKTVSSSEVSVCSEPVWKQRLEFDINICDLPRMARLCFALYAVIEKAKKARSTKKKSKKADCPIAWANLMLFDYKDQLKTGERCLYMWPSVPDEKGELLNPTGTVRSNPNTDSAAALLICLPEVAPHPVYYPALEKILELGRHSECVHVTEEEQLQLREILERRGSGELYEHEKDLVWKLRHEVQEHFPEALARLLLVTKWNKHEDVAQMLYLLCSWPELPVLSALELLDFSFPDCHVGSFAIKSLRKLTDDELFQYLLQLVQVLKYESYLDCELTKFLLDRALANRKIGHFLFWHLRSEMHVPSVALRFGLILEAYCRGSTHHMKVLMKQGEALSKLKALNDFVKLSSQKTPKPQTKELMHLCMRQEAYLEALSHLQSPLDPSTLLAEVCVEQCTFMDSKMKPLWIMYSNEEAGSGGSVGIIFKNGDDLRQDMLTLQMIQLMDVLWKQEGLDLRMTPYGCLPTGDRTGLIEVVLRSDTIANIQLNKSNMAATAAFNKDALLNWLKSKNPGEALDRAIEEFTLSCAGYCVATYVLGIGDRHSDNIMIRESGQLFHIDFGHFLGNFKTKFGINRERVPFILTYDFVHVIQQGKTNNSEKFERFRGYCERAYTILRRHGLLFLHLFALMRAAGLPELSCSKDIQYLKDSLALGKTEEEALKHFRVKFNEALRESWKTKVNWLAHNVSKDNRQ

Turning to `[2H]C1([2H])COc2ccc(O[C@H]3CCN(C(=O)C4CCOCC4)C3)cc2N1c1cnc(OC)c(C)c1` (single isomer, unassigned) [Q], the pIC50 in experiment [1] is 5.94; in experiment [2], 7.43; in experiment [3], 6.84; in experiment [4] it was 7.85.
For the compound `COc1ncc(N2CCOc3ccc(O[C@H]4CCN(C(=O)C5CCOCC5)C4)cc32)cc1C` [Example A1, (S)-(3-((4-(6-methoxy-5-methylpyridin-3-yl)-3,4-dihydro-2H-benzo[b][1,4]oxazin-6-yl)oxy)pyrrolidin-1-yl)(tetrahydro-2H-pyran-4-yl)methanone], the pIC50 in experiment [1] was 6.49; in experiment [2] it was 7.43; in experiment [3] it was 7.37; in experiment [4], 8.22.
The matching figures for `Cc1cc(N2CCOc3ccc(O[C@H]4CCN(C(=O)C5CCOCC5)C4)cc32)cnc1S(C)(=O)=O` [Example B1, {(S)-3-[4-(6-Methanesulfonyl-5-methyl-pyridin-3-yl)-3,4-dihydro-2H-benzo[1,4]oxazin-6-yloxy]-pyrrolidin-1-yl}-(tetrahydro-pyran-4-yl)-methanone]: 6.41, 7.54, 6.81 and 7.85.
Turning to `COc1ncc(N2CCOc3ccc(O[C@H]4CCN(C(=O)C5CCOCC5)C4)cc32)cc1C#N` [Example C1, 2-Methoxy-5-{6-[(S)-1-(tetrahydro-pyran-4-carbonyl)-pyrrolidin-3-yloxy]-2,3-dihydro-benzo[1,4]oxazin-4-yl}-nicotinonitrile], the pIC50 in experiment [1] is 6.52; in experiment [2], 7.17; in experiment [3], 7.09; in experiment [4] it was 7.72.
`COc1ncc(N2CCOc3ccc(O[C@H]4CCN(C(=O)c5cn(C)cn5)C4)cc32)cc1C#N` [Example D1, (S)-2-methoxy-5-(6-((1-(1-methyl-1H-imidazole-4-carbonyl)pyrrolidin-3-yl)oxy)-2H-benzo[b][1,4]oxazin-4(3H)-yl)nicotinonitrile]: the pIC50 in experiment [2] is 7.08; in experiment [3], 6.83; in experiment [4], 8.30.
Turning to `COc1ncc(N2CCOc3cnc(O[C@H]4CCN(C(=O)c5cn(C)cn5)C4)cc32)cc1C` [Example E1, {(S)-3-[1-(6-Methoxy-5-methyl-pyridin-3-yl)-2,3-dihydro-1H-pyrido[3,4-b][1,4]oxazin-7-yloxy]-pyrrolidin-1-yl}-(1-methyl-1H-imidazol-4-yl)-methanone], the pIC50 was 7.01 in experiment [1], 7.11 in experiment [2], 8.15 in experiment [3] and 8.40 in experiment [4].
On to `COc1ncc(N2CCOc3cnc(O[C@H]4CCN(C(=O)C5CCOCC5)C4)cc32)cc1C` [Example E3, {(S)-3-[1-(6-Methoxy-5-methyl-pyridin-3-yl]-2,3-dihydro-1H-pyrido[3,4-b][1,4]oxazin-7-yloxy]-pyrrolidin-1-yl}-(tetrahydro-pyran-4-yl)-methanone], for which the pIC50 in experiment [1] was 6.31; in experiment [2] it was 7.85; in experiment [3], 7.74; in experiment [4], greater than 8.52.
For the compound `COc1ncc(N2CCOc3cnc(O[C@H]4CCN(C(=O)C5CCS(=O)(=O)CC5)C4)cc32)cc1C` [Example F1, (1,1-Dioxo-hexahydro-1lambda*6*-thiopyran-4-yl)-{(S)-3-[1-(6-methoxy-5-methyl-pyridin-3-yl)-2,3-dihydro-1H-pyrido[3,4-b][1,4]oxazin-7-yloxy]-pyrrolidin-1-yl}-methanone], the pIC50 in experiment [2] was 8.15.
On to `COc1ncc(N2CCOc3cnc(O[C@H]4CCN(C(=O)c5cn(C)cn5)C4)cc32)cc1F` [Example F3, {(S)-3-[1-(5-Fluoro-6-methoxy-pyridin-3-yl)-2,3-dihydro-1H-pyrido[3,4-b][1,4]oxazin-7-yloxy]-pyrrolidin-1-yl}-(1-methyl-1H-imidazol-4-yl)-methanone], for which the pIC50 was 6.47 in experiment [1], 7.30 in experiment [3] and 8.22 in experiment [4].
`COc1ncc(N2CCOc3cnc(O[C@H]4CCN(C(=O)C5CCS(=O)(=O)CC5)C4)cc32)cc1C(F)F` [Example F7, {(S)-3-[1-(5-Difluoromethyl-6-methoxy-pyridin-3-yl)-2,3-dihydro-1H-pyrido[3,4-b][1,4]oxazin-7-yloxy]-pyrrolidin-1-yl}-(1,1-dioxo-hexahydro-1lambda*6*-thiopyran-4-yl)-methanone]: the pIC50 is 7.15 in experiment [1], 7.40 in experiment [2], 7.74 in experiment [3] and greater than 8.52 in experiment [4].

Source of the values: patent US9539260B2, “Dihydro-benzo-oxazine and dihydro-pyrido-oxazine derivatives” (Novartis AG, priority 2012, dated 2017).
